Measured values taken from publication PMC6499206, “Quantification of Volatile Metabolites Derived From Garlic (Allium sativum) in Human Urine” (Frontiers in Nutrition, 2019).

Assay: Quantification of garlic-derived metabolites in human urine after ingestion of 3 g raw garlic (SIDA, SAFE, HRGC-MS / HRGC-GC-MS)
Type: in vivo
Settings: 3 g raw garlic
Description: Human urine samples were obtained from 18 volunteers (age 22–38 years, mean 27 years; 11 females, 7 males); thereby, one volunteer conducted the whole experimental series twice. At the time of examination, volunteers reported no known illness that might have potentially influenced the metabolism or the excretion of urine. The test persons were instructed to avoid foods that were rich in sulfur-containing substances at the testing day as well as 2 days preceding the testing day, namely garlic, onion, wild garlic, chives, cabbage, and leek, and were only allowed to consume the garlic sample provided in the course of the experiments. Additionally, subjects were asked to keep records of the food (including food supplements) and beverages they consumed during these 3 testing days. Generally, the overall panelists' requirements were in accordance with our previous studies ([5], [16]).
On the sampling day, the outer garlic cloves of a whole garlic bulb were peeled and cut into ~3 mm cubes by using a garlic cutter (Genius GmbH, Limburg/Lahn, Germany). Subsequently these cubes were thoroughly mixed and aliquoted into 3 g portions. Three to four test persons conducted the experiment at the same day. Each test person was asked to ingest a garlic portion of 3 g. In total, eight consecutive urine samples were provided by each test person, comprising one whole urine set. The samples were collected in sterile brown glass bottles, with sampling times as follows: one sample was provided directly prior to garlic consumption. The series of the second to eighth sample was then obtained at about 0.5, 1, 2, 4, 6, 8, and 24 h after garlic consumption, respectively. Between the first urine sample (prior to garlic consumption) and the seventh urine sample (8 h after garlic consumption) test persons only spent urine at the specific time points mentioned before. Another sample was provided at the next morning (24 h after garlic consumption). Between the samples provided 8 and 24 h after garlic consumption no urine was collected. All samples were immediately placed into a −80°C freezer and were kept frozen until further analysis.
The samples of each set were termed according to their sampling time. The following list provides the time intervals that are related to the respective sample name: • - pre: before garlic consumption • - 0.5 h post: 0.4–0.8 h after garlic consumption • - 1 h post: 0.9–1.3 h after garlic consumption • - 2 h post: 1.8 h−2.2 h after garlic consumption • - 4 h post: 3.8–4.4 h after garlic consumption • - 6 h post: 5.8–6.4 h after garlic consumption • - 8 h post: 7.8–8.4 h after garlic consumption • - 24 h post: 23.8–25.6 h after garlic consumption
A creatinine kit (Labor+Technik Eberhard Lehmann GmbH, Berlin, Germany) was used to determine the creatinine content in each urine sample. The determination principle of this kit is based on the reaction of creatinine with picric acid under basic conditions (Jaffé reaction). The formed complex was detected photometrically at a wavelength of 492 nm.
For quantification purposes, the deuterated standards ^2H3-AMS, ^2H3-AMSO, and ^2H3-AMSO2 were added to the sample and stirred for 10 min. Subsequently, DCM was added in a ratio of 1:2 (DCM/human urine; v/v) and this solution was stirred for further 30 min at room temperature. To isolate the volatile fraction from the urine samples we then applied SAFE-distillation ([17]), thereby distilling the respective samples at 50°C. After completion of the distillation process, 10 mL of DCM were applied in each case to rinse the SAFE apparatus and to ensure complete transition of the volatile compounds. This process was repeated with another 10 mL of DCM. After thawing, the obtained aqueous distillate phase was extracted three times with 25 mL DCM. The organic phases were combined, dried over anhydrous Na2SO4 and concentrated to a total volume of 100 μL by means of Vigreux distillation and subsequent micro-distillation at 50°C. […]

## C=CCSC [AMS, allyl methyl sulfide]
U VII, 1 h post (1.08 h)
  metabolite concentration in urine, creatinine-normalized: 0.8 µg/mmol creatinine
U VII, 2 h post (2.00 h)
  metabolite concentration in urine: 0.8 µg/kg
  metabolite concentration in urine, creatinine-normalized: 0.8 µg/mmol creatinine
U VII, 4 h post (4.00 h)
  metabolite concentration in urine: 0.6 µg/kg
  metabolite concentration in urine, creatinine-normalized: 0.3 µg/mmol creatinine
U VII, 6 h post (6.00 h)
  metabolite concentration in urine: 0.7 µg/kg
  metabolite concentration in urine, creatinine-normalized: 0.2 µg/mmol creatinine
U VII, 8 h post (8.00 h)
  metabolite concentration in urine: 0.4 µg/kg
  metabolite concentration in urine, creatinine-normalized: 0.2 µg/mmol creatinine
U VII, 24 h post (24.00 h)
  metabolite concentration in urine: traces^1
  metabolite concentration in urine, creatinine-normalized: traces^1
U VII, pre (-0.25 h)
  metabolite concentration in urine: traces^1
  metabolite concentration in urine, creatinine-normalized: traces^1
U VIII, 0.5 h post (0.52 h)
  metabolite concentration in urine: 1.9 µg/kg
  metabolite concentration in urine, creatinine-normalized: 2.3 µg/mmol creatinine
U VIII, 1 h post (1.08 h)
  metabolite concentration in urine: 1.9 µg/kg
  metabolite concentration in urine, creatinine-normalized: 1.1 µg/mmol creatinine
U VIII, 2 h post (2.08 h)
  metabolite concentration in urine: 1.5 µg/kg
  metabolite concentration in urine, creatinine-normalized: 1.4 µg/mmol creatinine
U VIII, 4 h post (4.07 h)
  metabolite concentration in urine: 1.6 µg/kg
  metabolite concentration in urine, creatinine-normalized: 0.7 µg/mmol creatinine
U VIII, 6 h post (6.08 h)
  metabolite concentration in urine: 1.3 µg/kg
  metabolite concentration in urine, creatinine-normalized: 0.3 µg/mmol creatinine
U VIII, 8 h post (7.90 h)
  metabolite concentration in urine: 0.8 µg/kg
  metabolite concentration in urine, creatinine-normalized: 0.3 µg/mmol creatinine
U VIII, 24 h post (23.83 h)
  metabolite concentration in urine: 0.3 µg/kg
  metabolite concentration in urine, creatinine-normalized: 0.1 µg/mmol creatinine
U VIII, pre (-0.33 h)
  metabolite concentration in urine: 0.5 µg/kg
  metabolite concentration in urine, creatinine-normalized: 0.1 µg/mmol creatinine
U X, 0.5 h post (0.53 h)
  metabolite concentration in urine: 0.4 µg/kg
  metabolite concentration in urine, creatinine-normalized: 0.2 µg/mmol creatinine
U X, 1 h post (1.03 h)
  metabolite concentration in urine: 0.4 µg/kg
  metabolite concentration in urine, creatinine-normalized: 0.5 µg/mmol creatinine
U X, 2 h post (2.03 h)
  metabolite concentration in urine: 0.3 µg/kg
  metabolite concentration in urine, creatinine-normalized: 0.5 µg/mmol creatinine
U X, 4 h post (3.85 h)
  metabolite concentration in urine: 0.4 µg/kg
  metabolite concentration in urine, creatinine-normalized: 0.3 µg/mmol creatinine
U X, 6 h post (5.80 h)
  metabolite concentration in urine: 0.5 µg/kg
  metabolite concentration in urine, creatinine-normalized: 0.2 µg/mmol creatinine
U X, 8 h post (7.75 h)
  metabolite concentration in urine: 0.3 µg/kg
  metabolite concentration in urine, creatinine-normalized: 0.1 µg/mmol creatinine
U X, 24 h post (23.97 h)
  metabolite concentration in urine: 0.2 µg/kg
  metabolite concentration in urine, creatinine-normalized: 0.02 µg/mmol creatinine
U X, pre (-0.07 h)
  metabolite concentration in urine: < LOD^1
  metabolite concentration in urine, creatinine-normalized: < LOD^1
U XI, 0.5 h post (0.50 h)
  metabolite concentration in urine: 0.4 µg/kg
  metabolite concentration in urine, creatinine-normalized: 0.4 µg/mmol creatinine
U XI, 1 h post (1.02 h)
  metabolite concentration in urine: 0.6 µg/kg
  metabolite concentration in urine, creatinine-normalized: 0.7 µg/mmol creatinine
U XI, 2 h post (2.00 h)
  metabolite concentration in urine: 0.5 µg/kg
  metabolite concentration in urine, creatinine-normalized: 0.7 µg/mmol creatinine
U XI, pre (-0.08 h)
  metabolite concentration in urine: 0.8 µg/kg
  metabolite concentration in urine, creatinine-normalized: 0.2 µg/mmol creatinine
U XII, 0.5 h post (0.48 h)
  metabolite concentration in urine: 0.3 µg/kg
  metabolite concentration in urine, creatinine-normalized: 0.04 µg/mmol creatinine
U XII, 1 h post (1.03 h)
  metabolite concentration in urine: 0.3 µg/kg
  metabolite concentration in urine, creatinine-normalized: 0.3 µg/mmol creatinine
U XII, 2 h post (1.85 h)
  metabolite concentration in urine: 0.9 µg/kg
